In patent publication US20230271943A1, “COMPOUNDS AS DHODH INHIBITORS” (Nanjing Zenshine Pharmaceuticals Co., Ltd., priority 2020, published 2023):

How the values were obtained:
recombinant human DHODH = recombinant human DHODH (Homo sapiens, UniProt Q02127); assay: Biochemical enzymatic assay (DCIP bleaching); conditions: DCIP absorbance 600 nm, 60 min RT
Experimental: The biochemical activity of DHODH was measured by the bleaching of the dye 2,6-dichlorophenolindophenol (DCIP) (Knecht W. et al., Biochem. Pharmacol. 1998, 56, 1259-1264). The assay was conducted in buffer containing 50 mM Tris, 150 mM KCI, and 0.1% Triton® X-100 (pH 8.0). 5 ng DHODH protein in 50 µL assay buffer was mixed in a well of 96-well clear assay plate (Corning Cat#3599) with 25 µL series concentration of inhibitor at room temperature for 30mins prior to adding 25 µL substrate solution (1 mM L-Dihydroorotic acid, 0.1 mM Decylubiquinone, 0.06 mM DCIP). After incubation at RT for 60mins, absorbance at 600 nm was obtained using a PerkinElmer multimode plate-reading spectrophotometer. Purified recombinant human DHODH was purchased from R&D systems (Catalog# 10062-DD-020), L-dihydroorotic acid (Sigma, D7128), decylubiquinone (Sigma, D7911), DCIP (Sigma, D1878) and other chemicals were purchased from Sigma-Aldrich.

MV-4-11 cells = assay: MV-4-11 cell proliferation assay (CellTiter-Glo); type: cell-based; conditions: Homo sapiens, MV4-11, 72 h, read-out: MV-4-11 Cell Proliferation Assay IC50
Experimental: 5000 cells/well of MV-4-11 cells were seeded in IMDM 10% fetal calf serum (FBS, BI, Catalog#) in 96-well plates. The next day, cells were incubated with different concentrations of test compounds for 72 h. Cellular viability was analyzed using CellTiter-Glo® Luminescent Cell Viability Assay (Promega, #G7570) according to manufacturer’s instructions.

A/PR/8/34 (H1N1) strain = assay: Antiviral CPE assay in MDCK cells, A/PR/8/34 (H1N1); type: cell-based; conditions: Influenza A virus, 120 h, 5 days, CCK-8, read-out: Activity of anti-A/PR/8/34 (H1N1) EC50
in vitro = conditions: dog
H7N9 strain = assay: microbe, parasite or virus in culture; type: cell-based; conditions: Influenza A virus, H7N9, MDCK, 120 h, read-out: Anti-H7N9 EC50
H1N1(XJ49) strain = assay: Antiviral CPE assay in MDCK cells, H1N1 (XJ49); type: cell-based; conditions: Influenza A virus, H1N1, 120 h, 5 days, CCK-8, read-out: anti-H1N1 (XJ49) EC50
ZIKV strain = assay: microbe, parasite or virus in culture; type: cell-based; conditions: Zika virus, Vero, 72 h, read-out: Activity of anti-ZIKV EC50

Chain of recombinant human DHODH (Q02127 whole entry): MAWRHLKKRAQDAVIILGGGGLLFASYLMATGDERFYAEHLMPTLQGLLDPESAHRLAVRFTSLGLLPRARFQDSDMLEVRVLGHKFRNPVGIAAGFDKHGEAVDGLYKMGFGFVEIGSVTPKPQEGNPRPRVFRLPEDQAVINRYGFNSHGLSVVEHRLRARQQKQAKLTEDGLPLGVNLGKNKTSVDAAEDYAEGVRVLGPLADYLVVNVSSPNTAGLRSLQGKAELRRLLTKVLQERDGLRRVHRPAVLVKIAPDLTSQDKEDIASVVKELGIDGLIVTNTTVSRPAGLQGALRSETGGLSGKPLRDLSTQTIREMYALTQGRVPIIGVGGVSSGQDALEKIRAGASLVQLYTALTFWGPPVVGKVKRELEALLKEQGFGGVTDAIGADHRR

Structure (SMILES)	IC50 (recombinant human DHODH) [nM]	IC50 (MV-4-11 cells) [nM]	EC50 (A/PR/8/34 (H1N1) strain) [nM]	CC50 (in vitro) [nM]	EC50 (H7N9 strain) [nM]	EC50 (H1N1(XJ49) strain) [nM]	EC50 (ZIKV strain) [nM]
CCn1c(CO)nn(-c2cc3c(cc2F)c(=O)c(-c2c(F)cccc2Cl)nn3C(C)C)c1=O [Compound 2, 3-(2-chloro-6-fluorophenyl)-7-(4-ethyl-3-(hydroxymethyl)-5-oxo-4,5-dihydro-1H-1,2,4-triazol-1-yl)-6-fluoro-1-isopropylcinnolin-4(1H)-one]	97	0.09	64	> 1000			
CCC(CC)O[C@@H]1C=C(C(=O)O)C[C@H](N)[C@H]1NC(C)=O [Oseltamivir acid, reference compound]			[…]	> 100			
CCn1c(CO)nn(-c2cc3c(cc2F)c(=O)c(-c2c(F)cccc2Cl)nn3C(C)C(F)(F)F)c1=O (stereo not shown) [Compound 1, 3-(2-chloro-6-fluorophenyl)-7-(4-ethyl-3-(hydroxymethyl)-5-oxo-4,5-dihydro-1H-1,2,4-triazol-1-yl)-6-fluoro-1-(1,1,1-trifluoropropan-2-yl)cinnolin-4(1H)-one]	215						
O=C1c2c(O)c(=O)ccn2N([C@@H]2c3ccccc3SCc3c2ccc(F)c3F)[C@@H]2COCCN12 [Baloxavir, reference compound]			1.1	18			
CCn1c(CO)nn(-c2cc3c(C(C)C)nn(-c4c(F)cccc4Cl)c(=O)c3cc2F)c1=O [Compound 4, 2-(2-chloro-6-fluorophenyl)-6-(4-ethyl-3-(hydroxymethyl)-5-oxo-4,5-dihydro-1H-1,2,4-triazol-1-yl)-7-fluoro-4-isopropylphthalazin-1(2H)-one]	11	0.9	23	> 1000	14	5.7	0.37
